Laboratory results reported in ChEMBL document CHEMBL1147443, “Regioselective oxidation of 2-amino-3-aroyl-4,5-dialkylthiophenes by DMSO” (Bioorg Med Chem Lett, 2004).

Assays:
[1] = Half life by its biological oxidation in presence of horse radish […]; type: ADME; settings: horseradish, horseradish peroxidase
[2] = Half life by its biological oxidation in presence of human liver microsomes; type: ADME, Microsome

Structure (SMILES) | half-life [1] [min] | half-life [2] [min]
Nc1sc2c(c1C(=O)c1ccc(-c3ccccc3)cc1)CCCC2 | < 1 | < 1
Nc1sc2c(c1C(=O)c1ccc3ccccc3c1)CCCC2 | 1.33 | < 1
Cc1sc(N)c(C(=O)c2cccc(C(F)(F)F)c2)c1C | < 1 | < 1
